Data on 17 molecules can be found in patent publication US12624034B2, “Non-covalent modifiers of AKT1 and uses thereof” (Terremoto Biosciences, Inc., priority 2023, dated 2026).

pIC50: −log10 of the molar value. Like-named read-outs stand apart in the source and are kept apart here.

In test [1] the test system is LAPC4 prostate cancer cells, which express the AKT1 E17K allele. Kind of test: Antiproliferative effects in LAPC4 cells (CellTiter Glo, 72 h). The class given is cell-based. The conditions noted are these: read-out: LAPC4 proliferation IC50. Put shortly:
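Luminescent ATP read-out (CellTiter Glo) after 72 h compound exposure; 1,000 cells/well in IMDM + 12% FBS + 1% P/S. IC50 by Hill equation fit of luminescence vs. log(inhibitor).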
Background: In ATP-based viability assays light output follows the ATP content of the culture.

The target in the next test is T1, AKT1 E17K (Homo sapiens, UniProt P31749, E17K).
T1 construct: expressed in transfected cells; host or cells: HEK293
T1 sequence (P31749 whole entry E17K): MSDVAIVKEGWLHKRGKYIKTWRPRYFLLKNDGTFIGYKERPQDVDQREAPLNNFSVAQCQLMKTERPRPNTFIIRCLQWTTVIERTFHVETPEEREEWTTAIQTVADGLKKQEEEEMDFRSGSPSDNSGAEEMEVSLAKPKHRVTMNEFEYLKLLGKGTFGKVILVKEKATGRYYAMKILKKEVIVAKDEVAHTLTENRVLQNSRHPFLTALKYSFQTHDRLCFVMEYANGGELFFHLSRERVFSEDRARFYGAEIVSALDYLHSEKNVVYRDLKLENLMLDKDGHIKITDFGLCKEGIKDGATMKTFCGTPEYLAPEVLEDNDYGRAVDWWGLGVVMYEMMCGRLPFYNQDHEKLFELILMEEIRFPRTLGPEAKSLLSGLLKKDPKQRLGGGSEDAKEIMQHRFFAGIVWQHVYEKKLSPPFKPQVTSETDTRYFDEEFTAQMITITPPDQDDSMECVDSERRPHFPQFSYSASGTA
Kind of test: Live cell AKT1 E17K target engagement by NanoBRET competitive probe displacement in HEK293 cells. The conditions noted are these: 2 h at 37° C. The class given is binding. A digest of the protocol:
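Read-out: BRET ratio E600/E460 from luminescence at 460 and 600 nm, fitted to a log(inhibitor) vs. response Hill equation for IC50. Intact HEK293 cells expressing NanoLuc-tagged kinase, compound dilutions with ~EC50 ATP-competitive fluorescent tracer, 2 h, 37° C.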
On the technique in general: Bioluminescence resonance energy transfer reports proximity on the nanometre scale.

The target of a further test is T2, AKT1 WT (Homo sapiens, UniProt P31749).
T2 construct: expressed in transfected cells; host or cells: HEK293
T2 sequence (P31749 whole entry): as the sequence (P31749 whole entry E17K) above, with K17E counted along it
Kind of test: Live cell AKT1 WT target engagement by NanoBRET competitive probe displacement in HEK293 cells. The class given is binding. Particulars: 2 h at 37° C., read-out: AKT1 WT IC50.

The target in another test is T3, AKT2 (Homo sapiens, UniProt P31751).
T3 construct: expressed in transfected cells; host or cells: HEK293
T3 sequence (P31751 whole entry): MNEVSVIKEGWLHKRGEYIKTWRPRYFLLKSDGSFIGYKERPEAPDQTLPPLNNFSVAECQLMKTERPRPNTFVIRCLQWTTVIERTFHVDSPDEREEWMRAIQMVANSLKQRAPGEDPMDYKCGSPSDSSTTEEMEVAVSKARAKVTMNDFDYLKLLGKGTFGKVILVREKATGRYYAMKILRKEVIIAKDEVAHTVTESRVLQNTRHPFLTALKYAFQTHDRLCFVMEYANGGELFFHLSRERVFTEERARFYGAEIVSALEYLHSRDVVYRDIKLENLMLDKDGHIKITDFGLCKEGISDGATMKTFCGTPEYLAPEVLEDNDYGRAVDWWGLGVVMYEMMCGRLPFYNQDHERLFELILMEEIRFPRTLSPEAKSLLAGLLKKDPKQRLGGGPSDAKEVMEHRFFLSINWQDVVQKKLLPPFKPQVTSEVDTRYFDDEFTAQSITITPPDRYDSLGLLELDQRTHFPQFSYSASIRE
The test can be described thus: Live cell AKT2 target engagement by NanoBRET competitive probe displacement in HEK293 cells. The class given is binding. Particulars: 2 h at 37° C., read-out: AKT2 IC50.

The mark [2] stands for this setting: NanoBRET live cell target engagement, HEK293 cells.
Where [3] appears, read: NanoBRET competitive probe displacement, live HEK293 cells.

As to `Nc1ncccc1-c1nc2ccc(-n3cccn3)nc2n1-c1ccc2c(c1)CC[C@@H]2NC(=O)Cc1ccn[nH]1` [Compound 51, (S)—N-(5-(2-(2-aminopyridin-3-yl)-5-(1H-pyrazol-1-yl)-3H-imidazo[4,5-b]pyridin-3-yl)-2,3-dihydro-1H-inden-1-yl)-2-(1H-pyrazol-5-yl)acetamide], the pIC50 in test [1] (Homo sapiens, LAPC4, 72 h) is under 5.00; on AKT1 E17K (setting [2]), under 6.00; at AKT1 WT (setting [2]), 6.86; at AKT2 (setting [2]), 5.34.
With `Nc1ncccc1-c1nc2ccc(-n3cccn3)nc2n1-c1ccc2c(c1)CC[C@@H]2NC(=O)c1cncs1` [Compound 14, (S)—N-(5-(2-(2-aminopyridin-3-yl)-5-(1H-pyrazol-1-yl)-3H-imidazo[4,5-b]pyridin-3-yl)-2,3-dihydro-1H-inden-1-yl)thiazole-5-carboxamide], the pIC50 in test [1] (Homo sapiens, LAPC4, 72 h) is 5.89; on AKT1 E17K (setting [2]), 7.64; on AKT1 WT (setting [2]), 7.84; at AKT2 (setting [2]), 6.58.
On the same counts, the results for `Nc1ncccc1-c1nc2ccc(-n3nccn3)nc2n1-c1ccc2c(c1)CC[C@@H]2NC(=O)c1ccc(C(F)F)nc1` [Compound 65, (S)—N-(5-(2-(2-aminopyridin-3-yl)-5-(2H-1,2,3-triazol-2-yl)-3H-imidazo[4,5-b]pyridin-3-yl)-2,3-dihydro-1H-inden-1-yl)-6-(difluoromethyl)nicotinamide] are 6.03, 6.53, 7.71 and 5.97.
On to `Nc1ncccc1-c1nc2ccc(-n3nccn3)nc2n1-c1ccc2c(c1)CC[C@@H]2NC(=O)c1cncnc1` [Compound 59, (S)—N-(5-(2-(2-aminopyridin-3-yl)-5-(2H-1,2,3-triazol-2-yl)-3H-imidazo[4,5-b]pyridin-3-yl)-2,3-dihydro-1H-inden-1-yl)pyrimidine-5-carboxamide], for which the pIC50 in test [1] (Homo sapiens, LAPC4, 72 h) was 5.44; on AKT1 E17K (setting [2]), 6.58; at AKT1 WT (setting [2]), 7.31; at AKT2 (setting [2]) it was 5.46.
For `CCC(=O)N1CCC(N[C@H]2CCc3cc(-n4c(-c5cccnc5N)nc5ccc(-n6cccn6)nc54)ccc32)CC1` [Compound 278], the pIC50 in test [1] (Homo sapiens, LAPC4, 72 h) is under 5.00; on AKT1 E17K (setting [2]) it was under 6.00; on AKT1 WT (setting [2]), 7.03; at AKT2 (setting [2]), 5.48.
`COc1nccc(C(=O)N[C@H]2CCc3cc(-n4c(-c5cccnc5N)nc5ccc(-n6cccn6)nc54)ccc32)c1OC` [Compound 355]: the pIC50 is 5.56 in test [1] (Homo sapiens, LAPC4, 72 h); 6.13 on AKT1 E17K (setting [2]); 7.77 at AKT1 WT (setting [2]); 7.13 at AKT2 (setting [2]).
In the case of `Nc1ncccc1-c1nc2ccc(-n3cccn3)nc2n1-c1ccc2c(c1)CC(F)[C@@H]2NC1CCc2cnccc21` (single isomer, unassigned) [Compound 482], the pIC50 in test [1] (Homo sapiens, LAPC4, 72 h) is 6.08; at AKT1 E17K (setting [3]), 6.85; at AKT1 WT (setting [3]) it was 8.27; on AKT2 (setting [3]) it was 6.71.
Consider `Nc1ncccc1-c1nc2ccc(-n3cccn3)nc2n1-c1ccc2c(c1)CC[C@@H]2NC(=O)c1ccnc(C(F)F)c1` [Compound 44, (S)—N-(5-(2-(2-aminopyridin-3-yl)-5-(1H-pyrazol-1-yl)-3H-imidazo[4,5-b]pyridin-3-yl)-2,3-dihydro-1H-inden-1-yl)-2-(difluoromethyl)isonicotinamide], for which the pIC50 in test [1] (Homo sapiens, LAPC4, 72 h) is 5.85; at AKT1 E17K (setting [2]), 7.13; on AKT1 WT (setting [2]) it was 8.02; on AKT2 (setting [2]) it was 6.85.
Consider `Nc1ncccc1-c1nc2ccc(-n3cccn3)nc2n1-c1ccc2c(c1)CC[C@@H]2NC(=O)Cc1ccccn1` [Compound 50, (S)—N-(5-(2-(2-aminopyridin-3-yl)-5-(1H-pyrazol-1-yl)-3H-imidazo[4,5-b]pyridin-3-yl)-2,3-dihydro-1H-inden-1-yl)-2-(pyridin-2-yl)acetamide], for which the pIC50 in test [1] (Homo sapiens, LAPC4, 72 h) was under 5.00; at AKT1 E17K (setting [2]) it was under 6.00; on AKT1 WT (setting [2]) it was 6.55; on AKT2 (setting [2]), 5.43.
On the same counts, the results for `Nc1ncccc1-c1nc2ccc(-n3cccn3)nc2n1-c1ccc2c(c1)CC[C@@H]2NC(=O)c1cc[nH]c(=O)c1` [Compound 318] are 5.44, 6.74, 6.83 and 6.03.
As for `N#Cc1ccc(C(=O)N[C@H]2CCc3cc(-n4c(-c5cccnc5N)nc5ccc(-n6cccn6)nc54)ccc32)cc1` [Compound 41, N-[(1S)-5-[2-(2-aminopyridin-3-yl)-5-(pyrazol-1-yl)imidazo[4,5-b]pyridin-3-yl]-2,3-dihydro-1H-inden-1-yl]-4-cyanobenzamide], the pIC50 in test [1] (Homo sapiens, LAPC4, 72 h) is 5.93; on AKT1 E17K (setting [2]), 7.52; on AKT1 WT (setting [2]), 8.20; on AKT2 (setting [2]) it was 7.24.
The corresponding values for `Nc1ncccc1-c1nc2ccc(-n3cccn3)nc2n1-c1ccc2c(c1)CC[C@@H]2NC(=O)c1cnc(C(F)F)c(F)c1` [Compound 62, (S)—N-(5-(2-(2-aminopyridin-3-yl)-5-(1H-pyrazol-1-yl)-3H-imidazo[4,5-b]pyridin-3-yl)-2,3-dihydro-1H-inden-1-yl)-6-(difluoromethyl)-5-fluoronicotinamide] are 6.16, 7.19, 8.30 and 7.23.
On the same counts, the results for `Nc1ncccc1-c1nc2ccc(-n3cccn3)nc2n1-c1ccc2c(c1)CC[C@@H]2NC(=O)c1cnc(C(F)F)c(Cl)c1` [Compound 365] are 6.35, 7.58, 8.07 and 7.60.
With `Nc1ncccc1-c1nc2ccc(-n3cccn3)nc2n1-c1ccc2c(c1)CC[C@@H]2NC(=O)c1ccnc(OC(F)(F)F)c1` [Compound 64, (S)—N-(5-(2-(2-aminopyridin-3-yl)-5-(1H-pyrazol-1-yl)-3H-imidazo[4,5-b]pyridin-3-yl)-2,3-dihydro-1H-inden-1-yl)-2-(trifluoromethoxy)isonicotinamide], the pIC50 was 5.58 in test [1] (Homo sapiens, LAPC4, 72 h); 6.80 on AKT1 E17K (setting [2]); 8.33 at AKT1 WT (setting [2]); 6.74 on AKT2 (setting [2]).
Take `Nc1ncccc1-c1nc2ccc(-n3cccn3)nc2n1-c1ccc2c(c1)CC[C@@H]2NC(=O)c1cccnc1` [Compound 34, N-[(1S)-5-[2-(2-aminopyridin-3-yl)-5-(pyrazol-1-yl)imidazo[4,5-b]pyridin-3-yl]-2,3-dihydro-1H-inden-1-yl]pyridine-3-carboxamide]: the pIC50 in test [1] (Homo sapiens, LAPC4, 72 h) is 6.26; on AKT1 E17K (setting [2]) it was 7.62; at AKT1 WT (setting [2]), 8.20; at AKT2 (setting [2]) it was 7.19.
Regarding `Nc1ncccc1-c1nc2ccc(-n3nccn3)nc2n1-c1ccc2c(c1)CC(F)[C@@H]2NC(=O)c1ccc(C(F)F)nc1` (some centres unmarked) [Compound 349], the pIC50 was 6.39 in test [1], 7.30 at AKT1 E17K (setting [2]), 7.99 at AKT1 WT (setting [2]) and 6.65 at AKT2 (setting [2]).
With `Cn1ncc2cc(C(=O)N[C@H]3CCc4cc(-n5c(-c6cccnc6N)nc6ccc(-n7cccn7)nc65)ccc43)cnc21` [Compound 28, (S)—N-(5-(2-(2-aminopyridin-3-yl)-5-(1H-pyrazol-1-yl)-3H-imidazo[4,5-b]pyridin-3-yl)-2,3-dihydro-1H-inden-1-yl)-1-methyl-1H-pyrazolo[3,4-b]pyridine-5-carboxamide], the pIC50 was 6.65 in test [1] (Homo sapiens, LAPC4, 72 h); 7.92 on AKT1 E17K (setting [2]); 8.60 on AKT1 WT (setting [2]); 8.18 at AKT2 (setting [2]).
